In US5530126A, “Process for the preparation of substituted 6-(pyrazol-3yl)-1,4-benzoxazin-3-ones” (Monsanto Company, priority 1994, dated 1996) one finds inhibition data, which are given here for six compounds.

What all share (format): in vivo
The test system of experiment [1] is Barnyardgrass. Kind of experiment: Post-emergence herbicide test. The note with it: Echinochloa crus-galli, read-out: % plant inhibition (Bygr); for inhibition at 11210 g/ha: 11.21 kg/ha; for inhibition at 1120 g/ha: 1.12 kg/ha. The procedure, abridged:
(§1)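 Injury scored as percent inhibition against untreated control, usually at 11 days and occasionally at 25 days post-treatment. Greenhouse plants (2–3 weeks) received an atomized spray (~0.4% emulsifier, 1870 L/Ha, 10 psig).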

The subject of experiment [2] is Indian Mustard. Nature of the experiment: Post-emergence herbicide test. The note with it: Brassica juncea, read-out: % plant inhibition (Inmu); for inhibition at 11210 g/ha: 11.21 kg/ha; for inhibition at 1120 g/ha: 1.12 kg/ha. In outline:
as §1

Experiment [3] has as its system Wild buckwheat. Nature of the experiment: Post-emergence herbicide test. The settings on record: Fallopia convolvulus, read-out: % plant inhibition (Wibw); for inhibition at 11210 g/ha: 11.21 kg/ha; for inhibition at 1120 g/ha: 1.12 kg/ha. In outline: as §1
Experiment [4] relates to Morningglory. Kind of experiment: Post-emergence herbicide test. The note with it: Ipomoea, read-out: % plant inhibition (Mogl); for inhibition at 11210 g/ha: 11.21 kg/ha; for inhibition at 1120 g/ha: 1.12 kg/ha. In outline: as §1
Experiment [5] concerns Cocklebur. Kind of experiment: Post-emergence herbicide test. The settings on record: Xanthium strumarium, read-out: % plant inhibition (Cobu); for inhibition at 11210 g/ha: 11.21 kg/ha; for inhibition at 1120 g/ha: 1.12 kg/ha. The procedure, abridged: as §1
Experiment [6] relates to Annual bluegrass. Kind of experiment: Post-emergence herbicide test. The settings on record: read-out: % plant inhibition (Anbg); for inhibition at 11210 g/ha: 11.21 kg/ha; for inhibition at 1120 g/ha: 1.12 kg/ha. In outline: as §1
The test system of experiment [7] is Downy Brome. Kind of experiment: Post-emergence herbicide test. The note with it: Bromus tectorum, read-out: % plant inhibition (Dobr); for inhibition at 11210 g/ha: 11.21 kg/ha; for inhibition at 1120 g/ha: 1.12 kg/ha. In outline: as §1
Experiment [8] deals with Seedling johnsongrass. Nature of the experiment: Post-emergence herbicide test. The note with it: Sorghum halepense, read-out: % plant inhibition (Sejg); for inhibition at 11210 g/ha: 11.21 kg/ha; for inhibition at 1120 g/ha: 1.12 kg/ha. The procedure, abridged:
as §1

Experiment [9] deals with Yellow nutsedge. Kind of experiment: Post-emergence herbicide test. The note with it: Cyperus, read-out: % plant inhibition (Yens); for inhibition at 11210 g/ha: 11.21 kg/ha; for inhibition at 1120 g/ha: 1.12 kg/ha. In outline: as §1
Experiment [10] concerns Velvetleaf. Kind of experiment: Post-emergence herbicide test. The note with it: Abutilon theophrasti, read-out: % plant inhibition (Vele); for inhibition at 11210 g/ha: 11.21 kg/ha; for inhibition at 1120 g/ha: 1.12 kg/ha. The procedure, abridged:
as §1

The test system of experiment [11] is Barnyardgrass. Nature of the experiment: Pre-emergence herbicide test. The note with it: Echinochloa crus-galli, read-out: % plant inhibition (Bygr); for inhibition at 11210 g/ha: 11.21 kg/ha; for inhibition at 1120 g/ha: 1.12 kg/ha. The procedure, abridged: (§2)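 Percent growth inhibition was rated roughly 10-14 days after treatment. Test compound, dissolved or suspended in acetone or water, had been applied to seeds placed on compacted topsoil, which was then covered with untreated soil and kept in the greenhouse.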

The subject of experiment [12] is Indian Mustard. Nature of the experiment: Pre-emergence herbicide test. The note with it: Brassica juncea, read-out: % plant inhibition (Inmu); for inhibition at 11210 g/ha: 11.21 kg/ha; for inhibition at 1120 g/ha: 1.12 kg/ha. The procedure, abridged: as §2
The test system of experiment [13] is Wild buckwheat. Kind of experiment: Pre-emergence herbicide test. The note with it: Fallopia convolvulus, read-out: % plant inhibition (Wibw); for inhibition at 11210 g/ha: 11.21 kg/ha; for inhibition at 1120 g/ha: 1.12 kg/ha. In outline: as §2
Experiment [14] concerns Morningglory. Kind of experiment: Pre-emergence herbicide test. The note with it: Ipomoea, read-out: % plant inhibition (Mogl); for inhibition at 11210 g/ha: 11.21 kg/ha; for inhibition at 1120 g/ha: 1.12 kg/ha. The procedure, abridged: as §2
Experiment [15] relates to Cocklebur. Kind of experiment: Pre-emergence herbicide test. The settings on record: Xanthium strumarium, read-out: % plant inhibition (Cobu); for inhibition at 11210 g/ha: 11.21 kg/ha; for inhibition at 1120 g/ha: 1.12 kg/ha. In outline: as §2
The test system of experiment [16] is Annual bluegrass. Kind of experiment: Pre-emergence herbicide test. The note with it: read-out: % plant inhibition (Anbg); for inhibition at 11210 g/ha: 11.21 kg/ha; for inhibition at 1120 g/ha: 1.12 kg/ha. The procedure, abridged:
as §2

Experiment [17] deals with Downy Brome. Nature of the experiment: Pre-emergence herbicide test. The settings on record: Bromus tectorum, read-out: % plant inhibition (Dobr); for inhibition at 11210 g/ha: 11.21 kg/ha; for inhibition at 1120 g/ha: 1.12 kg/ha. The procedure, abridged:
as §2

The test system of experiment [18] is Seedling johnsongrass. Kind of experiment: Pre-emergence herbicide test. The note with it: Sorghum halepense, read-out: % plant inhibition (Sejg); for inhibition at 11210 g/ha: 11.21 kg/ha; for inhibition at 1120 g/ha: 1.12 kg/ha. The procedure, abridged: as §2
The test system of experiment [19] is Yellow nutsedge. Nature of the experiment: Pre-emergence herbicide test. The settings on record: Cyperus, read-out: % plant inhibition (Yens); for inhibition at 11210 g/ha: 11.21 kg/ha; for inhibition at 1120 g/ha: 1.12 kg/ha. The procedure, abridged:
as §2

Experiment [20] has as its system Velvetleaf. Nature of the experiment: Pre-emergence herbicide test. The note with it: Abutilon theophrasti, read-out: % plant inhibition (Vele); for inhibition at 11210 g/ha: 11.21 kg/ha; for inhibition at 1120 g/ha: 1.12 kg/ha. The procedure, abridged:
as §2

Consider `Cn1nc(-c2ccc(Cl)cc2Cl)c(Cl)c1C(F)(F)F` [Compound 85], for which the inhibition (commonly the share of the control response that was lost under treatment) at 11210 g/ha in the experiment with Barnyardgrass [1] came to 70%; in the experiment with Indian Mustard [2], 20%; in the experiment with Wild buckwheat [3], 100%; in the experiment on Morningglory [4] it was 100%; in the experiment on Cocklebur [5], 40%; in the experiment with Annual bluegrass [6] it was 60%. Moreover, the inhibition at 11210 g/ha in the experiment on Downy Brome [7] was 50%; in the experiment with Seedling johnsongrass [8] it was 90%; with Yellow nutsedge [9], 20%; in the experiment on Velvetleaf [10], 100%; with Barnyardgrass [11], 100%; in the experiment with Indian Mustard [12], 100%. Moreover, the inhibition at 11210 g/ha came out at 100% in the experiment with Wild buckwheat [13]; 100% with Morningglory [14]; 40% with Cocklebur [15]; 100% in the experiment with Annual bluegrass [16]; 100% in the experiment with Downy Brome [17]; 100% in the experiment with Seedling johnsongrass [18]. The inhibition at 11210 g/ha with Yellow nutsedge [19] amounted to 0%; with Velvetleaf [20] it was 100%.

Regarding `COc1cc(-c2c(Cl)c(C(F)(F)F)nn2C)c(F)cc1[N+](=O)[O-]` [Compound 72], the inhibition at 11210 g/ha in the experiment on Barnyardgrass [1] was 50%; in the experiment on Indian Mustard [2], 30%; in the experiment with Wild buckwheat [3], 90%; in the experiment with Morningglory [4], 30%; with Cocklebur [5] it was 60%; in the experiment with Annual bluegrass [6], 10%. The inhibition at 11210 g/ha in the experiment on Downy Brome [7] came to 20%; with Seedling johnsongrass [8] it was 10%; in the experiment on Yellow nutsedge [9], 10%; in the experiment with Velvetleaf [10], 90%; with Barnyardgrass [11] it was 60%; in the experiment with Indian Mustard [12], 90%. Further, the inhibition at 11210 g/ha in the experiment with Wild buckwheat [13] amounted to 90%; in the experiment on Morningglory [14], 40%; in the experiment on Cocklebur [15], 20%; in the experiment on Annual bluegrass [16], 20%; in the experiment with Downy Brome [17], 20%; in the experiment on Seedling johnsongrass [18] it was 60%. In addition, the inhibition at 11210 g/ha was 0% in the experiment with Yellow nutsedge [19] and 90% in the experiment on Velvetleaf [20].

With `Cc1cc(-c2c(Cl)c(C(F)(F)F)nn2C)c(F)cc1Cl` [Compound 63], the inhibition at 11210 g/ha in the experiment with Barnyardgrass [1] is 20%; in the experiment with Indian Mustard [2], 40%; in the experiment on Wild buckwheat [3], 100%; in the experiment with Morningglory [4], 100%; with Cocklebur [5], 0%; with Annual bluegrass [6], 20%. Further, the inhibition at 11210 g/ha in the experiment on Downy Brome [7] came out at 20%; in the experiment with Seedling johnsongrass [8] it was 70%; with Yellow nutsedge [9], 0%; with Velvetleaf [10], 100%; in the experiment on Barnyardgrass [11], 100%; in the experiment on Indian Mustard [12], 100%. Besides, the inhibition at 11210 g/ha amounted to 100% in the experiment on Wild buckwheat [13]; 100% in the experiment on Morningglory [14]; 60% in the experiment on Cocklebur [15]; 100% in the experiment with Annual bluegrass [16]; 100% with Downy Brome [17]; 100% with Seedling johnsongrass [18]. Also, the inhibition at 11210 g/ha in the experiment with Yellow nutsedge [19] was 0%; in the experiment on Velvetleaf [20], 100%.

As to `Cn1nc(-c2cc(C(C)(C)C#N)c(Cl)cc2F)c(Cl)c1C(F)(F)F` [Compound 103], the inhibition at 1120 g/ha in the experiment with Barnyardgrass [1] was found to be 80%; with Indian Mustard [2], 70%; in the experiment on Wild buckwheat [3], 100%; with Morningglory [4] it was 80%; in the experiment on Cocklebur [5], 60%; with Annual bluegrass [6] it was 40%. The inhibition at 1120 g/ha in the experiment on Downy Brome [7] was determined as 30%; with Seedling johnsongrass [8], 70%; in the experiment on Yellow nutsedge [9], 10%; in the experiment on Velvetleaf [10], 100%; with Barnyardgrass [11] it was 20%; with Indian Mustard [12], 40%. In addition, the inhibition at 1120 g/ha is 100% in the experiment on Wild buckwheat [13]; 60% with Morningglory [14]; 0% in the experiment on Cocklebur [15]; 20% in the experiment on Annual bluegrass [16]; 70% in the experiment on Downy Brome [17]; 40% with Seedling johnsongrass [18]. Moreover, the inhibition at 1120 g/ha with Yellow nutsedge [19] was 0%; with Velvetleaf [20], 50%.

For the compound `Cn1nc(-c2cc(/C=C/C(=O)O)c(Cl)cc2F)c(Cl)c1C(F)(F)F` [Compound 351], the inhibition at 1120 g/ha with Barnyardgrass [1] turned out to be 70%; in the experiment on Indian Mustard [2] it was 100%; with Wild buckwheat [3], 100%; in the experiment with Morningglory [4] it was 100%; with Cocklebur [5], 100%; in the experiment on Annual bluegrass [6], 30%. The inhibition at 1120 g/ha in the experiment on Downy Brome [7] was found to be 40%; in the experiment on Seedling johnsongrass [8], 60%; in the experiment on Yellow nutsedge [9], 30%; in the experiment on Velvetleaf [10], 100%; in the experiment on Barnyardgrass [11] it was 0%; with Indian Mustard [12], 100%. Further, the inhibition at 1120 g/ha in the experiment with Wild buckwheat [13] came out at 100%; in the experiment on Morningglory [14], 80%; in the experiment on Cocklebur [15], 80%; in the experiment on Annual bluegrass [16], 0%; with Downy Brome [17], 0%; in the experiment with Seedling johnsongrass [18], 0%. Besides, the inhibition at 1120 g/ha worked out at 0% in the experiment with Yellow nutsedge [19] and 100% with Velvetleaf [20].

Turning to `CC(=O)OCc1cc(-c2nn(C)c(C(F)(F)F)c2Cl)c(F)cc1Cl` [Compound 121], the inhibition at 11210 g/ha stood at 100% in the experiment on Barnyardgrass [1]; 90% with Indian Mustard [2]; 100% with Wild buckwheat [3]; 100% with Morningglory [4]; 90% in the experiment with Cocklebur [5]; 40% in the experiment on Annual bluegrass [6]. Further, the inhibition at 11210 g/ha in the experiment on Downy Brome [7] amounted to 90%; in the experiment with Seedling johnsongrass [8], 90%; in the experiment on Yellow nutsedge [9] it was 20%; in the experiment on Velvetleaf [10], 100%; in the experiment with Barnyardgrass [11], 100%; in the experiment with Indian Mustard [12] it was 100%. For the same compound, the inhibition at 11210 g/ha with Wild buckwheat [13] turned out to be 100%; in the experiment with Morningglory [14] it was 100%; with Cocklebur [15], 60%; with Annual bluegrass [16], 100%; with Downy Brome [17] it was 70%; in the experiment with Seedling johnsongrass [18], 80%. For the same compound, the inhibition at 11210 g/ha with Yellow nutsedge [19] is 70%; in the experiment on Velvetleaf [20], 100%.
